Measured values from PMC8308021, “Indole- and Pyrazole-Glycyrrhetinic Acid Derivatives as PTP1B Inhibitors: Synthesis, In Vitro and In Silico Studies” (Molecules, 2021).
Entries after “also recorded” stand apart in the source; their conditions may differ.

Key:
[1] = target: T1, PTP1B (Homo sapiens, UniProt P18031); test: PTP1B inhibitory assay (pNPP, spectrocolorimetric); assay type: biochemical; conditions: pNPP substrate; three independent determinations
T1 sequence (P18031 1-435): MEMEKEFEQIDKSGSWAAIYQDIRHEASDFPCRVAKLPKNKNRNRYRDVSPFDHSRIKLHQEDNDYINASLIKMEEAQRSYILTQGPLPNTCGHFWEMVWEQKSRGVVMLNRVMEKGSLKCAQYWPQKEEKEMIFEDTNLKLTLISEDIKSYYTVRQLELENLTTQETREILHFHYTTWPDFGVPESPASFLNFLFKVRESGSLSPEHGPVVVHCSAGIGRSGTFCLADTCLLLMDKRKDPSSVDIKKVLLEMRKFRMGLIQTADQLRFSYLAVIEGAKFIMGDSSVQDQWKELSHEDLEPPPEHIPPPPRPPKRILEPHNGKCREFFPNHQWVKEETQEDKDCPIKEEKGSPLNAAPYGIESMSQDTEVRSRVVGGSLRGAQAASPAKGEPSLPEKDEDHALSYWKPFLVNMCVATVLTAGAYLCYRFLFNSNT
Method: To test the inhibitory activity of the compounds against PTP1B, a spectrocolorimetric method previously described was employed. The compounds and positive control were dissolved in DMSO or buffer solution [50 mM; Tris-HCI Buffer, pH 6.8], DL-dithiothreitol 1.5 mM, all from Sigma–Aldrich, St. Louis, MO, USA. Aliquots of 0–10 μL of testing compounds (triplicated) were incubated for 10 min at 37 °C with 85 μL of enzyme stock solution (3 μM) in buffer solution. After incubation, 5 μL of the substrate p-nitrophenyl phosphate (pNPP, 0.5 mM, Sigma–Aldrich, St. Louis, MO, USA) were added and incubated a further 25 min at 37 °C; then, the absorbance was recorded at 415 nm.

[2] = target: T1, PTP1B; test: Enzyme kinetics of PTP1B inhibition; assay type: biochemical; conditions: for Inhibition Type: best fit of competitive vs non-competitive model, Lineweaver-Burk; for Ki: non-linear regression of saturation curves at fixed inhibitor concentrations
Method: The kinetic studies were carried out under the same conditions described above. Different saturation curves were constructed at fixed inhibitor concentrations. The different inhibitor concentrations were determined based on the previously determined IC50 for each compound. Subsequently, the data obtained were analyzed through a non-linear regression, using OriginPro version 2018 (64-bit) SR1 (Northamton MA, USA, https://www.originlab.com) (accessed on 2 April 2021), adjusting to the following mathematical models:
And non-competitive: y=Vm×s^nh/(1+i/Ki)×S05^nh+(1+i/Ki)×s^nh where Vm is the maximum velocity, S and i are the concentration of substrate and inhibitor, respectively; Ki is the inhibition constant, and nh is the number of Hill.
Additionally, Lineweaver–Burk graphs were constructed to visualize the type of inhibition graphically.

IC50 [1]	Ki [2]	melting point	Inhibition Type ([2]; listed as ursolic acid)	SMILES	Inhibition Type [2]
69.7 ± 6.98 µM				CC1(C)[C@@H](OC(=O)CCC(=O)O)CC[C@]2(C)[C@H]3C(=O)C=C4[C@@H]5C[C@@](C)(C(=O)O)CC[C@]5(C)CC[C@@]4(C)[C@]3(C)CC[C@@H]12 [CA, carbenoxolone, reference compound]	
6.6 ± 0.13 µM		245 to 248 °C		CC1(C)c2[nH]c3ccccc3c2C[C@@]2(C)C1CC[C@]1(C)C2C(=O)C=C2C3C[C@@](C)(C(=O)O)CC[C@]3(C)CC[C@]21C (stereo partly drawn) [Compound 4a]	
4.3 ± 0.26 µM		243 to 244 °C		COc1ccc2[nH]c3c(c2c1)C[C@@]1(C)C(CC[C@]2(C)C1C(=O)C=C1C4C[C@@](C)(C(=O)O)CC[C@]4(C)CC[C@]12C)C3(C)C (stereo partly drawn) [Compound 4b]	
8.3 ± 0.1 µM		268 to 271 °C		Cc1ccc2[nH]c3c(c2c1)C[C@@]1(C)C(CC[C@]2(C)C1C(=O)C=C1C4C[C@@](C)(C(=O)O)CC[C@]4(C)CC[C@]12C)C3(C)C (stereo partly drawn) [Compound 4c]	
5.2 ± 0.22 µM		245 to 248 °C		CC1(C)c2[nH]c3ccc(F)cc3c2C[C@@]2(C)C1CC[C@]1(C)C2C(=O)C=C2C3C[C@@](C)(C(=O)O)CC[C@]3(C)CC[C@]21C (stereo partly drawn) [Compound 4d]	
10.1 ± 0.21 µM		256 to 258 °C		CC1(C)c2[nH]c3ccc(Cl)cc3c2C[C@@]2(C)C1CC[C@]1(C)C2C(=O)C=C2C3C[C@@](C)(C(=O)O)CC[C@]3(C)CC[C@]21C (stereo partly drawn) [Compound 4e]	
2.5 ± 0.03 µM	3.9 ± 0.5 µM			CC1(C(=O)O)CCC2(C)CCC3(C)C(=CC(=O)C4C5(C)Cc6c([nH]c7ccc(C(F)(F)F)cc67)C(C)(C)C5CCC43C)C2C1 (stereo not drawn) [Compound 4f]	non-competitive inhibition; also recorded: non-competitive inhibitors
5.1 ± 0.56 µM		243 to 245 °C		CC1(C)c2c(cnn2-c2ccccc2)C[C@@]2(C)C1CC[C@]1(C)C2C(=O)C=C2C3C[C@@](C)(C(=O)O)CC[C@]3(C)CC[C@]21C (stereo partly drawn) [Compound 5a]	
4.8 ± 0.2 µM		208 to 211 °C		COc1ccc(-n2ncc3c2C(C)(C)C2CC[C@]4(C)C(C(=O)C=C5C6C[C@@](C)(C(=O)O)CC[C@]6(C)CC[C@]54C)[C@@]2(C)C3)cc1 (stereo partly drawn) [Compound 5b]	
4.8 ± 0.3 µM				Cc1ccc(-n2ncc3c2C(C)(C)C2CC[C@]4(C)C(C(=O)C=C5C6C[C@@](C)(C(=O)O)CC[C@]6(C)CC[C@]54C)[C@@]2(C)C3)cc1 (stereo partly drawn) [Compound 5c]	
9.6 ± 0.2 µM		260 to 264 °C		CC1(C)c2c(cnn2-c2ccc(F)cc2)C[C@@]2(C)C1CC[C@]1(C)C2C(=O)C=C2C3C[C@@](C)(C(=O)O)CC[C@]3(C)CC[C@]21C (stereo partly drawn) [Compound 5d]	
7.5 ± 0.22 µM		263 to 266 °C		CC1(C)c2c(cnn2-c2ccc(Cl)cc2)C[C@@]2(C)C1CC[C@]1(C)C2C(=O)C=C2C3C[C@@](C)(C(=O)O)CC[C@]3(C)CC[C@]21C (stereo partly drawn) [Compound 5e]	
4.4 ± 0.07 µM	4.6 ± 0.6 µM	270 to 271 °C		CC1(C(=O)O)CCC2(C)CCC3(C)C(=CC(=O)C4C5(C)Cc6cnn(-c7ccc(C(F)(F)F)cc7)c6C(C)(C)C5CCC43C)C2C1 (stereo not drawn) [Compound 5f]	non-competitive inhibition; also recorded: non-competitive inhibitors
				Cc1ccc(C(=O)Nc2ccc(S(=O)(=O)O)c3cc(S(=O)(=O)O)cc(S(=O)(=O)O)c23)cc1NC(=O)c1cccc(NC(=O)Nc2cccc(C(=O)Nc3cc(C(=O)Nc4ccc(S(=O)(=O)O)c5cc(S(=O)(=O)O)cc(S(=O)(=O)O)c45)ccc3C)c2)c1 [SU, suramin]	competitive inhibition; also recorded: competitive inhibitor
			non-competitive inhibitor	C[C@H]1[C@H](C)CC[C@]2(C(=O)O)CC[C@]3(C)C(=CC[C@@H]4[C@@]5(C)CC[C@H](O)C(C)(C)[C@@H]5CC[C@]43C)[C@H]12 [UA, ursolic acid]	non-competitive inhibition

SMILES	IC50 [1]	Ki [2]	melting point	Inhibition Type ([2]; listed as ursolic acid)	Inhibition Type [2]
CC(C)CCC[C@@H](C)[C@H]1CC[C@H]2[C@@H]3C[C@@H](NCCCNCCCCNCCCN)[C@H]4C[C@@H](O)CC[C@]4(C)[C@H]3CC[C@]12C [CL, claramine]	13.7 ± 0.11 µM	15.4 ± 1.7 µM			non-competitive inhibition
